The results in this text go back to patent publication US9676723B2, “Factor XIa inhibitors” (Merck Sharp & Dohme Corp., priority 2014, dated 2017).

Structures can show the parent of a compound that is named as a salt.

The experiment concerns the target T1, human Factor XIa (Homo sapiens, UniProt P03951).
T1 construct: purified human Factor XIa; purchased Sekisui Diagnostics
The experiment is described as follows: Factor XIa Assay (fluorogenic substrate Z-Gly-Pro-Arg-AFC hydrolysis). To be noted: purified human Factor XIa 40 pM; substrate Z-Gly-Pro-Arg-AFC 100 μM; 50 mM HEPES pH 7.4; read-out: hu Factor XIa Ki. Type of experiment: biochemical. How it is done: The effectiveness of compounds of the present invention as inhibitors of Coagulation Factor XIa can be determined using a relevant purified serine protease, and an appropriate synthetic substrate. The rate of hydrolysis of the chromogenic or fluorogenic substrate by the relevant serine protease was measured both in the absence and presence of compounds of the present invention. Assays were conducted at room temperature or at 37° C. […] A decrease in the rate of fluorescence change in the presence of inhibitor is indicative of enzyme inhibition. Such methods are known to one skilled in the art. The results of this assay are expressed as the inhibitory constant, Ki.
Factor XIa determinations were made in 50 mM HEPES buffer at pH 7.4 containing 150 mM NaCl, 5 mM CaCl2, and 0.1% PEG 8000 (polyethylene glycol; JT Baker or Fisher Scientific). Determinations were made using purified human Factor XIa at a final concentration of 40 pM (Sekisui Diagnostics) and the synthetic substrate, Z-Gly-Pro-Arg-AFC, TFA salt (Sigma #C0980) at a concentration of 100 μM.
Activity assays were performed by diluting a stock solution of substrate at least tenfold to a final concentration ≦0.1 Km into a solution containing enzyme or enzyme equilibrated with inhibitor. Times required to achieve equilibration between enzyme and inhibitor were determined in control experiments. Initial velocities of product formation in the absence (Vo) or presence of inhibitor (Vi) were measured. Assuming competitive inhibition, and that unity is negligible compared Km/[S], [I]/e, and [I]/e (where [S], [I], and e respectively represent the total concentrations, of substrate, inhibitor and enzyme), the equilibrium constant (Ki) for dissociation of the inhibitor from the enzyme can be obtained from the dependence of Vo/Vi on [I] shown in the following equation. Vo/Vi=1+[I]/Ki

T1 sequence (P03951 388-625 limits assumed): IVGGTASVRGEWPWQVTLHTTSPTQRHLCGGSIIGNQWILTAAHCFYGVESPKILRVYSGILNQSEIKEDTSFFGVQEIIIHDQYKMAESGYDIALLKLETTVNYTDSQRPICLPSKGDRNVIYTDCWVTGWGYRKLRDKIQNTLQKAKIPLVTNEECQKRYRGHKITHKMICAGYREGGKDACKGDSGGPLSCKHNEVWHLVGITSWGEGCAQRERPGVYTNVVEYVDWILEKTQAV
T1 sequence (P03951 19-387 partner limits assumed): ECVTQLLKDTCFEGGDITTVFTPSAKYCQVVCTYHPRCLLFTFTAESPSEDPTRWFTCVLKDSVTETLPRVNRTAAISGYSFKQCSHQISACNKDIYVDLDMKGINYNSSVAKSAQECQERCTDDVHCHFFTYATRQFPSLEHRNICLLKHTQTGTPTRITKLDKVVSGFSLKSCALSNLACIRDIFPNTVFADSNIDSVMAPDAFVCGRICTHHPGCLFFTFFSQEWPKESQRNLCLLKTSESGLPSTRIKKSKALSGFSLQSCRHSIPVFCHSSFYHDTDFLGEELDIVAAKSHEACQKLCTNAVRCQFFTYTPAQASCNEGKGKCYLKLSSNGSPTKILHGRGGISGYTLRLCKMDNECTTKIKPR

Regarding `Cc1nc2cc(NC(=O)[C@H](Cc3ccccc3)N3CCc4cc(CN)ccc4C3=O)ccc2s1` [Example 8], the Ki – broadly, a measure of affinity in units of concentration, obtained from inhibition or displacement – was 907 nM.
Under `NCc1ccc2c(c1)CCN([C@@H](Cc1ccccc1)c1ncc(-c3cccc(F)c3)[nH]1)C2=O` [Example 10] stands 4130 nM.
Under `NCc1ccc2c(c1)CCN([C@@H](Cc1ccccc1)C(=O)Nc1cccc(F)c1)C2=O` [Example 9] stands 1080 nM; under `NCc1ccc2c(c1)CCN([C@@H](Cc1ccccc1)C(=O)Nc1ccc3[nH]ncc3c1)C2=O` [Example 7], 246 nM; under `NCc1ccc2c(c1)CCN([C@@H](Cc1ccccc1)C(=O)Nc1ccc(-c3cnc(C4CC4)o3)cc1)C2=O` [Example 25], 221 nM.
Under `COC(=O)Nc1ccc(-c2[nH]c([C@H](Cc3ccccc3)N3CCc4cc(CN)ccc4C3=O)nc2Cl)cc1` [Example 6] stands 14 nM; under `NCc1ccc2c(c1)CCN([C@@H](Cc1ccccc1)c1ncc(-c3ccc(C(=O)O)s3)[nH]1)C2=O` [Example 5], 546 nM.
`NCc1ccc2c(c1)CCN([C@@H](Cc1ccccc1)C(=O)Nc1ccc(-c3c[nH]cn3)cc1)C2=O` [Example 19]: the Ki turned out to be 68.9 nM.
Under `NCc1ccc2c(c1)CCN([C@@H](Cc1ccccc1)c1nc(Cl)c(-c3ccc(NC(=O)OC4CCCC4)cc3)[nH]1)C2=O` [Example 15] stands 506 nM; under `NCc1ccc2c(c1)CCN([C@@H](Cc1ccccc1)C(=O)Nc1ccc(-c3cc[nH]n3)cc1)C2=O` [Example 20], 94.3 nM; under `COC(=O)Nc1ccc(-c2cnc([C@H](Cc3ccccc3)N3CCc4cc(CN)ccc4C3=O)[nH]2)cc1` [Example 2, (S)-METHYL (4-(2-(1-(6-(AMINOMETHYL)-1-OXO-3,4-DIHYDROISOQUINOLIN-2(1H)-YL)-2-PHENYLETHYL)-1H-IMIDAZOL-5-YL)PHENYL)CARBAMATE 2,2,2-TRIFLUOROACETATE], 116 nM.
For the compound `Cc1ccc(-c2ccc(NC(=O)[C@H](Cc3ccccc3)N3CCc4cc(CN)ccc4C3=O)cc2)o1` [Example 23], the Ki is 1080 nM.
Regarding `NCc1ccc2c(c1)CCN([C@@H](Cc1ccccc1)C(=O)Nc1ccc3c(N)n[nH]c3c1)C2=O` [Example 13], the Ki worked out at 151 nM.
Take `NCc1ccc2c(c1)CCN([C@@H](Cc1ccccc1)c1ncc(-c3ccc4c(N)n[nH]c4c3)[nH]1)C2=O` [Example 12]: the Ki is 53 nM.
For `Cc1nc2ccc(NC(=O)[C@H](Cc3ccccc3)N3CCc4cc(CN)ccc4C3=O)cc2s1` [Example 27], the Ki is 284 nM.
`Cc1ncc(-c2ccc(NC(=O)[C@H](Cc3ccccc3)N3CCc4cc(CN)ccc4C3=O)cc2)o1` [Example 22]: the Ki came to 240 nM.
Under `CC(C)COC(=O)Nc1ccc(-c2[nH]c([C@H](Cc3ccccc3)N3CCc4cc(CN)ccc4C3=O)nc2Cl)cc1` [Example 14] stands 435 nM; under `NCc1ccc2c(c1)CCN(C(Cc1ccccc1)C(=O)Nc1ccc(C(=O)O)cc1)C2=O` (centres unmarked) [Example 4], 176 nM.
As to `NCc1ccc2c(c1)CCN([C@@H](Cc1ccccc1)C(=O)Nc1ccc(C(=O)O)cc1)C2=O` [Example 1, 4-({(2S)-2-[6-(aminomethyl)-1-oxo-3,4-dihydroisoquinolin-2(1H)-yl]-3-phenylpropanoyl}amino)benzoic acid trifluoroacetate], the Ki worked out at 44 nM.
To `NCc1ccc2c(c1)CN([C@@H](Cc1ccccc1)C(=O)Nc1ccc(C(=O)O)cc1)C2=O` [Example 3] belongs 308 nM; to `Cn1ccc(-c2ccc(NC(=O)[C@H](Cc3ccccc3)N3CCc4cc(CN)ccc4C3=O)cc2)n1` [Example 26], 207 nM.
To `Cc1nsc2ccc(NC(=O)[C@H](Cc3ccccc3)N3CCc4cc(CN)ccc4C3=O)cc12` [Example 28] belongs 1470 nM; to `NCc1ccc2c(c1)CCN([C@@H](Cc1ccccc1)C(=O)Nc1ccc3ccncc3c1)C2=O` [Example 24], 1080 nM; to `COC(=O)Nc1ccc(-c2[nH]c([C@H](Cc3ccccc3)N3CCc4cc(CN)ccc4C3=O)nc2C)cc1` [Example 11], 84 nM.
For the compound `Cc1nnc(-c2ccc(NC(=O)[C@H](Cc3ccccc3)N3CCc4cc(CN)ccc4C3=O)cc2)[nH]1` [Example 21], the Ki worked out at 254 nM.
To `COC(=O)Nc1ccc(-c2cnc([C@H](Cc3ccccc3)N3CCc4c(ccc(CN)c4C4CC4)C3=O)[nH]2)cc1` [Example 29, (S)-methyl (4-(2-(1-(6-(aminomethyl)-5-cyclopropyl-1-oxo-3,4-dihydroisoquinolin-2(1H)-yl)-2-phenylethyl)-1H-imidazol-5-yl)phenyl)carbamate 2,2,2-trifluoroacetate] belongs 198 nM.
